Data on 35 molecules can be found in article PMC4633020 (Journal of medicinal chemistry, 2015).

One series deals with E. faecium NCTC 7171. Nature of the series: MIC, broth microdilution. The class given is cell-based, Enterococcus faecium. The note with it: for antibacterial activity against E. faecium (in words): SAR discussion, E. faecium NCTC 7171; for MIC: Enterococcus faecium, NCTC7171, E. faecium NCTC 7171. (Broth dilution looks for growth in wells or tubes with falling amounts of substance.)

Series [1] is described as follows: In vitro metabolic stability in human liver S9. The class given is in vitro ADME. The note with it: calculated from in vitro half-life in human liver S9.
Series [2] in a line: Plasma-protein binding, equilibrium dialysis. The format is in vitro ADME. The settings on record: human plasma. On the technique in general: Equilibrium dialysis compares concentrations on both sides of a semipermeable membrane.
For series [3] the following is noted: marketed antibiotics; cited from earlier work.

For the molecule `CC1=C(C(N)=O)C(c2ccccc2)n2nc(SCc3ccccc3)nc2N1` (stereo not shown) [Compound 2], the “antibacterial activity against E. faecium (in words)” value (shortened to “antibacterial activity”) with E. faecium NCTC 7171 was “loss of antibacterial activity”.

Regarding `CCc1ccc(C2C(C(N)=O)=C(C)Nc3nc(SCc4ccccc4)nn32)cc1` (stereo not shown) [Compound 4], in the series on E. faecium NCTC 7171, the MIC (as a rule, the lowest concentration found to suppress growth) was ≤ 8 mg/L.

Take `CC1=C(C(N)=O)C(c2ccc(O)cc2)n2nc(SCc3ccccc3)nc2N1` (stereo not shown) [Compound 6]: the “antibacterial activity” value with E. faecium NCTC 7171 is on record as “loss of antimicrobial activity”.

Take `COc1ccc(C2C(C(N)=O)=C(C)Nc3nc(SCc4ccccc4)nn32)cc1` (stereo not shown) [Compound 7]: in the series on E. faecium NCTC 7171, the “antibacterial activity” value is “devoid of activity”.

Take `COc1ccc(C2C(C(N)=O)=C(C)Nc3nc(SCc4ccccc4)nn32)cc1O` (stereo not shown) [Compound 8]: the “antibacterial activity” value in the series on E. faecium NCTC 7171 is “loss of antimicrobial activity”.

With `COc1ccc(C2C(C(N)=O)=C(C)Nc3nc(SCc4ccccc4)nn32)cc1OC` (stereo not shown) [Compound 9], in the series on E. faecium NCTC 7171, the “antibacterial activity” value is recorded as “loss of antimicrobial activity”.

For the molecule `CC1=C(C(N)=O)C(c2ccc(OC(C)C)cc2)n2nc(SCc3ccccc3)nc2N1` (stereo not shown) [Compound 10, 2-(Benzylthio)-7-(4-isopropoxyphenyl)-5-methyl-4,7-dihydro-[1,2,4]triazolo[1,5-a]pyrimidine-6-carboxamide], in the series with E. faecium NCTC 7171, the MIC is ≤ 8 mg/L. The Apparent intrinsic clearance in series [1] is listed as 10.9 mLmin^−1kg^−1. In addition, in series [2], the “Plasma-protein binding (in words)” value was “high”.

On to `CC1=C(C(N)=O)C(c2ccc(OC(F)(F)F)cc2)n2nc(SCc3ccccc3)nc2N1` (stereo not shown) [Compound 11], for which, in the series on E. faecium NCTC 7171, the MIC was ≤ 8 mg/L and the “antibacterial activity” value is “retained activity”.

For `CSc1ccc(C2C(C(N)=O)=C(C)Nc3nc(SCc4ccccc4)nn32)cc1` (stereo not shown) [Compound 12], in the series with E. faecium NCTC 7171, the “antibacterial activity” value was “devoid of activity”.

For the molecule `CCSc1ccc(C2C(C(N)=O)=C(C)Nc3nc(SCc4ccccc4)nn32)cc1` (stereo not shown) [Compound 13, 2-(Benzylthio)-7-(4-ethylthiophenyl]-5-methyl-4,7-dihydro[1,2,4]-triazolo[1,5-a]pyrimidine-6-carboxamide], the “improvement of the anti-E. faecium activity” value with E. faecium NCTC 7171 (compared to the 4-OCH3 (7) and 4-SMe (12) derivatives) turned out to be 32 fold. Also, the Apparent intrinsic clearance in series [1] was <10.4 mLmin^−1kg^−1. Also, the “Plasma-protein binding (in words)” value in series [2] was “high”.

Take `CCN(CC)c1ccc(C2C(C(N)=O)=C(C)Nc3nc(SCc4ccccc4)nn32)cc1` (stereo not shown) [Compound 17]: the MIC in the series with E. faecium NCTC 7171 was ≤ 8 mg/L.

Consider `CCN(CC)CCOc1ccc(C2C(C(N)=O)=C(C)Nc3nc(SCc4ccccc4)nn32)cc1` (stereo not shown) [Compound 20], for which the “antibacterial activity” value in the series on E. faecium NCTC 7171 is “no activity”.

For `CC1=C(C(N)=O)C(c2ccc(C(F)(F)F)cc2)n2nc(SCc3ccccc3)nc2N1` (stereo not shown) [Compound 21], in the series with E. faecium NCTC 7171, the MIC was ≤ 8 mg/L and the “antibacterial activity” value is listed as “retained activity”.

With `CC1=C(C(N)=O)C(c2ccc(F)cc2)n2nc(SCc3ccccc3)nc2N1` (stereo not shown) [Compound 22], the “antibacterial activity” value with E. faecium NCTC 7171 is “did not show any activity”.

For the molecule `CC1=C(C(N)=O)C(c2ccc(Cl)cc2)n2nc(SCc3ccccc3)nc2N1` (stereo not shown) [Compound 23], the “antibacterial activity” value in the series on E. faecium NCTC 7171 was “did not show any activity”.

Take `CC1=C(C(N)=O)C(c2ccc(C#N)cc2)n2nc(SCc3ccccc3)nc2N1` (stereo not shown) [Compound 24]: the “antibacterial activity” value in the series with E. faecium NCTC 7171 was “retained activity”.

As for `CC1=C(C(N)=O)C(c2ccccc2C(F)(F)F)n2nc(SCc3ccccc3)nc2N1` (stereo not shown) [Compound 27], in the series with E. faecium NCTC 7171, the “antibacterial activity” value was “inactive”.

`CC1=C(C(N)=O)C(C2CCCCC2)n2nc(SCc3ccccc3)nc2N1` (stereo not shown) [Compound 42]: in the series with E. faecium NCTC 7171, the “antibacterial activity” value is “devoid of activity”.

Regarding `CCOC(=O)C1=C(C)Nc2nc(SCc3ccccc3)nn2C1c1ccc(N(C)C)cc1` (stereo not shown) [Compound 43], the “antibacterial activity” value in the series on E. faecium NCTC 7171 is “lost antimicrobial activity”.

Turning to `CNC(=O)C1=C(C)Nc2nc(SCc3ccccc3)nn2C1c1ccc(N(C)C)cc1` (stereo not shown) [Compound 45], the “antibacterial activity” value with E. faecium NCTC 7171 is recorded as “slight reduction of activity”.

Regarding `CN(C)c1ccc(C2C3=C(CCCC3=O)Nc3nc(SCc4ccccc4)nn32)cc1` (stereo not shown) [Compound 46], the “antibacterial activity” value in the series on E. faecium NCTC 7171 is reported as “abolished activity”.

On to `CC1=C(C(=O)Nc2ccccc2)C(c2ccc(N(C)C)cc2)n2nc(SCc3ccccc3)nc2N1` (stereo not shown) [Compound 51], for which the “antibacterial activity” value in the series on E. faecium NCTC 7171 is recorded as “slight reduction of activity”.

Consider `CC1=C(C(N)=O)C(c2ccc(N(C)C)cc2)n2nc(SCCNC(=O)OCc3ccccc3)nc2N1` (stereo not shown) [Compound 72], for which the “antibacterial activity” value with E. faecium NCTC 7171 is “not tolerated”.

Consider `CC1=C(C(N)=O)C(c2ccc(C(C)C)cc2)n2nc(SCCNC(=O)OCc3ccccc3)nc2N1` (stereo not shown) [Compound 73], for which the “antibacterial activity” value with E. faecium NCTC 7171 was “not tolerated”.

Take `CC1=C(C(N)=O)C(c2ccc(C(=O)O)cc2)n2nc(SCCNC(=O)OCc3ccccc3)nc2N1` (stereo not shown) [Compound 74]: in the series with E. faecium NCTC 7171, the “antibacterial activity” value is “not tolerated”.

In the case of `CC1=C(C(N)=O)C(c2ccc(N(C)C)cc2)n2nc(SCc3ccncc3)nc2N1` (stereo not shown) [Compound 75], the “antibacterial activity” value with E. faecium NCTC 7171 is given as “loss of activity”.

For the molecule `CC1=C(C(N)=O)C(c2ccc(N(C)C)cc2)n2nc(Sc3ccccn3)nc2N1` (stereo not shown) [Compound 76], the “antibacterial activity” value with E. faecium NCTC 7171 was “loss of activity”.

Turning to `CC1=C(C(N)=O)C(c2ccc(N(C)C)cc2)n2nc(SCc3ccc(C(F)(F)F)cc3)nc2N1` (stereo not shown) [Compound 80], the “antibacterial activity” value in the series on E. faecium NCTC 7171 is “no activity”.

`CC1=C(C(N)=O)C(c2ccc(N(C)C)cc2)n2nc(SCc3ccc(OC(F)(F)F)cc3)nc2N1` (stereo not shown) [Compound 81]: the “antibacterial activity” value in the series on E. faecium NCTC 7171 is recorded as “no activity”.

Turning to `CC1=C(C(N)=O)C(c2ccc(N(C)C)cc2)n2nc(SCc3ccc(SC(F)(F)F)cc3)nc2N1` (stereo not shown) [Compound 82], the “antibacterial activity” value in the series with E. faecium NCTC 7171 is “as active as compound 1”.

As for `CC1=C(C(N)=O)C(c2ccc(N(C)C)cc2)n2nc(SCc3ccc([N+](=O)[O-])cc3)nc2N1` (stereo not shown) [Compound 83, 2-(4-Nitrobenzylthio)-7-(4-dimethylaminophenyl)-5-methyl-4,7-dihydro[1,2,4]triazolo[1,5-a]pyrimidine-6-carboxamide], the “antibacterial activity” value in the series on E. faecium NCTC 7171 was “as good as compound 16”. Also, in series [1], the Apparent intrinsic clearance is listed as <10.4 mLmin^−1kg^−1. In addition, in series [2], the “Plasma-protein binding (in words)” value is reported as “high”.

As for `CCCCCCCCCC(=O)N[C@@H](Cc1c[nH]c2ccccc12)C(=O)N[C@H](CC(N)=O)C(=O)N[C@@H](CC(=O)O)C(=O)N[C@@H]1C(=O)NCC(=O)N[C@@H](CCCN)C(=O)N[C@@H](CC(=O)O)C(=O)N[C@H](C)C(=O)N[C@@H](CC(=O)O)C(=O)NCC(=O)N[C@H](CO)C(=O)N[C@@H]([C@H](C)CC(=O)O)C(=O)N[C@@H](CC(=O)c2ccccc2N)C(=O)O[C@@H]1C` [daptomycin], the plasma protein binding in series [3] was > 91%.

Take `Cc1onc(-c2ccccc2)c1C(=O)N[C@@H]1C(=O)N2[C@@H]1SC(C)(C)[C@@H]2C(=O)O` [oxacillin]: the plasma protein binding in series [3] is listed as > 91%.

For `CO[C@H]1/C=C/O[C@@]2(C)Oc3c(C)c(O)c4c(O)c(c(/C=N/N5CCN(C)CC5)c(O)c4c3C2=O)NC(=O)/C(C)=C\C=C\[C@H](C)[C@H](O)[C@@H](C)[C@@H](O)[C@@H](C)[C@H](OC(C)=O)[C@@H]1C` [rifampicin], the plasma protein binding in series [3] is > 91%.

With teicoplanin, in series [3], the plasma protein binding was > 91%.
